Data: patent US20130165475A1, “DEUTERIUM-ENRICHED HETEROCYCLIC COMPOUNDS AS KINASE INHIBITORS” (ASCEPION PHARMACEUTICALS, INC., priority 2010, published 2013)
Counter-ions that a name gives are not always drawn.

What was measured:
VEGFR2 = molecular target: T1, VEGFR2 (Homo sapiens, UniProt P35968); test: VEGFR2 cell-based assay (ELISA, phosphor-/total VEGFR2 in transfected CHO cells); details: compound at 100 nM; CHO cells transfected with full length VEGFR2; FBS stimulation; read-out: % VEGFR2 kinase activity remains
T1 construct: expressed in transfected cells; host or cells: CHO cells
From the text: A standard cell-based assay for VEGFR2 kinase activity can be used to test or screen the compounds of this invention and to identify VEGFR2 antagonists. In this example, ELISA kits (R&D Systems, Inc., Minneapolis, Minn. 55413, USA) were used.
The activity of VEGFR2 in cells depended on its autophosphorylation level by various factors including growth factors. In order to induce the cell to produce VEGFR2, full length of VEGFR2 sequence was cloned into PC-DNA3.1 vector, the plasmid was then transfected into CHO cells. After 48 hours, the expression of VEGFR2 in transfected CHO cells was confirmed by regular western blotting.
A compound to be tested was first dissolved in DMSO to a concentration of 10 mM and stored at −20° C. One day before the test, CHO cells transfected with full length VEGFR2 plasmid were grown in Dulbecco's Modified Eagle Medium (DMEM) without the presence of serum. On the day of the test, the compounds with various concentrations in DMSO (from 0.5 nM to 500 nM) were added into DMEM. Two hours later, 20% of FBS (Fetal Bovine Serum) was added into the medium to stimulate the production of phosphor-VEGFR2. Cell lysate from approximately 5×10^5 transfected CHO cells were reacted with anti-phosphor VEGFR2 or anti-total VEGFR2 antibody in 96-well plates, in the presence of detection antibody. The phosphor-VEGFR2 or total VEGFR2 were detected with Streptavidin-HRP(R&D Systems), followed by chemiluminescent detection. The level of VEGFR2 kinase activity was quantified as the ratio between the amount of phosphor- and that of total VEGFR2 proteins.

c-Met = molecular target: T2, c-Met (Homo sapiens, UniProt P08581); test: c-Met cell-based assay (ELISA, phosphor-/total c-Met in transfected CHO cells, HGF stimulated); details: compound at 100 nM; CHO cells transfected with full length c-Met; HGF 100 ng/mL
T2 construct: expressed in transfected cells; host or cells: CHO cells
From the text: A standard cell-based assay for c-Met kinase activity can be used to test or screen the compounds of this invention and to identify c-Met antagonists. In this example, ELISA kits (R&D Systems, Inc., Minneapolis, Minn. 55413, USA) were used.
The activity of c-Met in cells depended on its autophosphorylation level by it specific growth factor-Hepatocyte growth factor (HGF). In order to induce the cell to produce c-Met, full length of c-Met sequence was cloned into PC-DNA3.1 vector, the plasmid was then transfected into CHO cells. After 48 hours, the expression of c-Met in transfected CHO cells was confirmed by regular western blotting.
A compound to be tested was first dissolved in DMSO to a concentration of 10 mM and stored at −20° C. One day before the screening, CHO cells transfected with full length c-Met plasmid were grown in DMEM medium without the presence of serum. On the day of screening procedure, the compounds with various concentration in DMSO (from 0.5 nM to 500 nM) were added into DMEM medium, two hours later, Hepatocyte growth factor (HGF) was added into the medium at the concentration of 100 ng/mL to stimulate the production of phosphor-c-Met. Cell lysate from approximately 5×10^5 transfected CHO cells were reacted with anti-phosphor c-Met or anti-total c-Met antibody in 96 well plates, in the presence of detection antibody. The phosphor-c-Met or total c-Met were detected with Streptavidin-HRP (R&D Systems), followed by chemiluminescent detection. The level of c-Met kinase activity was quantified as the ratio between the amount of phosphor- and that of total c-Met proteins.

Rat liver microsome = test: Liver microsomal stability assay, rat; assay type: in vitro ADME; design: key: A: the percentage of a compound remains is greater than that of its deuterium non-enriched counterpart; B: a result otherwise; details: 40 μM, 37° C., 30 min, 1 mg/ml microsome proteins; class relative to deuterium non-enriched counterpart
Description: (§1) A standard liver microsomal stability assay can be used to test or screen the compounds of this invention and to identify compounds with enhanced metabolic stability due to the enrichment of deuterium in the compounds. Liver microsome proteins prepared from different species such as mouse and rat were obtained from a commercial source (Research Institute for Liver Diseases, Shanghai, China). The assay was conducted in 1.5% potassium hydrogenphosphate (K2HPO4) in the presence of liver microsome proteins at 1 mg/ml and supplemented with an […] (3.3 mM NADPH, 3.3 mM glucose-6-phosphate, 6 units/ml G6PDase, and 3.3 mM magnesium chloride). Test compound was added into the assay mixture to a final concentration of 40 μM and incubated at 37° C. for 0 or 30 minutes. The reaction was stopped by the addition of 20 μM Bifonazole/CAN. Samples were then centrifuged at 14000 rpm for 10 minutes to precipitate proteins. Supernatant were then transferred to microcentrifuge tubes and subject to reverse phase HPLC analysis to determine the concentration of test compound.
(§2) The percentage of compounds that remained in the assay reactions after a thirty-minute incubation at 37° C. is calculated as the ratio between the amount of compound remained after a thirty-minute and that after a zero-minute incubation.

Mouse liver microsome = test: Liver microsomal stability assay, mouse; assay type: in vitro ADME; design: key: A: the percentage of a compound remains is greater than that of its deuterium non-enriched counterpart; B: a result otherwise; details: 40 μM, 37° C., 30 min, 1 mg/ml microsome proteins; class relative to deuterium non-enriched counterpart
Description: as §1, §2

T1 sequence (P35968 20-1356): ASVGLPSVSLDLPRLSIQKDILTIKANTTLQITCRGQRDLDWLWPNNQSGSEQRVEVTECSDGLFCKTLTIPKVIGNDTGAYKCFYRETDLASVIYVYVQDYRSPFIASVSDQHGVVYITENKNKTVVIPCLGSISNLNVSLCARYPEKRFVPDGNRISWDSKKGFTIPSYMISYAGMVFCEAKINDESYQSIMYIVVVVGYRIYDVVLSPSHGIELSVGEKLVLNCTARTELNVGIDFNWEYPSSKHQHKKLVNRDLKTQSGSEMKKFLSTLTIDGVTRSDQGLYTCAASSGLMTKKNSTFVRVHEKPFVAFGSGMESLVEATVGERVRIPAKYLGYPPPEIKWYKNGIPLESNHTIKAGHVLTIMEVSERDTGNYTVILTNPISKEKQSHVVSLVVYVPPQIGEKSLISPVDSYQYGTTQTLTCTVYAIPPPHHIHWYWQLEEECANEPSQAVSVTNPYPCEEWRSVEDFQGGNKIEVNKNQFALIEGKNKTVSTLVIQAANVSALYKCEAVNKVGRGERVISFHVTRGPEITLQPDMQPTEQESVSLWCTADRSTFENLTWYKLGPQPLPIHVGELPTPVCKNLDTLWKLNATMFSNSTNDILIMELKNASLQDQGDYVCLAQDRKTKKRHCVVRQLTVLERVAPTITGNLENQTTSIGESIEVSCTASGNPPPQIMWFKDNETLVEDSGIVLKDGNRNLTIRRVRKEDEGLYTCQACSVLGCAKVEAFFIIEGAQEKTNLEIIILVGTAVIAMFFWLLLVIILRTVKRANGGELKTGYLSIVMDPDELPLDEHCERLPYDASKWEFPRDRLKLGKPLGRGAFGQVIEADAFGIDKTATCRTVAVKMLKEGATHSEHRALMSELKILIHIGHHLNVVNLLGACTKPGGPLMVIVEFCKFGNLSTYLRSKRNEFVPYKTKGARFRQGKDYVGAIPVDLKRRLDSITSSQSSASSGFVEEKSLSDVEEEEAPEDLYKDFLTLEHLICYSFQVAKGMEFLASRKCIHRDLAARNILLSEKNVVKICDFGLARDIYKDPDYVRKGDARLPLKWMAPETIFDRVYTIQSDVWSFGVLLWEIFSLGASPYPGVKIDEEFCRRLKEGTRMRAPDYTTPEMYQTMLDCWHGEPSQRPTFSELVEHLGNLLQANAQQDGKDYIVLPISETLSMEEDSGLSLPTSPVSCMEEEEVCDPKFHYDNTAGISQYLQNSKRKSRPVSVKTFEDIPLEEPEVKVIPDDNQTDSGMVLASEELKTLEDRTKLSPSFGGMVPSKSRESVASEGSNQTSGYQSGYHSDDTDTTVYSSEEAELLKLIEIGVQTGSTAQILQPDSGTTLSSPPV
T2 sequence (P08581 25-1390): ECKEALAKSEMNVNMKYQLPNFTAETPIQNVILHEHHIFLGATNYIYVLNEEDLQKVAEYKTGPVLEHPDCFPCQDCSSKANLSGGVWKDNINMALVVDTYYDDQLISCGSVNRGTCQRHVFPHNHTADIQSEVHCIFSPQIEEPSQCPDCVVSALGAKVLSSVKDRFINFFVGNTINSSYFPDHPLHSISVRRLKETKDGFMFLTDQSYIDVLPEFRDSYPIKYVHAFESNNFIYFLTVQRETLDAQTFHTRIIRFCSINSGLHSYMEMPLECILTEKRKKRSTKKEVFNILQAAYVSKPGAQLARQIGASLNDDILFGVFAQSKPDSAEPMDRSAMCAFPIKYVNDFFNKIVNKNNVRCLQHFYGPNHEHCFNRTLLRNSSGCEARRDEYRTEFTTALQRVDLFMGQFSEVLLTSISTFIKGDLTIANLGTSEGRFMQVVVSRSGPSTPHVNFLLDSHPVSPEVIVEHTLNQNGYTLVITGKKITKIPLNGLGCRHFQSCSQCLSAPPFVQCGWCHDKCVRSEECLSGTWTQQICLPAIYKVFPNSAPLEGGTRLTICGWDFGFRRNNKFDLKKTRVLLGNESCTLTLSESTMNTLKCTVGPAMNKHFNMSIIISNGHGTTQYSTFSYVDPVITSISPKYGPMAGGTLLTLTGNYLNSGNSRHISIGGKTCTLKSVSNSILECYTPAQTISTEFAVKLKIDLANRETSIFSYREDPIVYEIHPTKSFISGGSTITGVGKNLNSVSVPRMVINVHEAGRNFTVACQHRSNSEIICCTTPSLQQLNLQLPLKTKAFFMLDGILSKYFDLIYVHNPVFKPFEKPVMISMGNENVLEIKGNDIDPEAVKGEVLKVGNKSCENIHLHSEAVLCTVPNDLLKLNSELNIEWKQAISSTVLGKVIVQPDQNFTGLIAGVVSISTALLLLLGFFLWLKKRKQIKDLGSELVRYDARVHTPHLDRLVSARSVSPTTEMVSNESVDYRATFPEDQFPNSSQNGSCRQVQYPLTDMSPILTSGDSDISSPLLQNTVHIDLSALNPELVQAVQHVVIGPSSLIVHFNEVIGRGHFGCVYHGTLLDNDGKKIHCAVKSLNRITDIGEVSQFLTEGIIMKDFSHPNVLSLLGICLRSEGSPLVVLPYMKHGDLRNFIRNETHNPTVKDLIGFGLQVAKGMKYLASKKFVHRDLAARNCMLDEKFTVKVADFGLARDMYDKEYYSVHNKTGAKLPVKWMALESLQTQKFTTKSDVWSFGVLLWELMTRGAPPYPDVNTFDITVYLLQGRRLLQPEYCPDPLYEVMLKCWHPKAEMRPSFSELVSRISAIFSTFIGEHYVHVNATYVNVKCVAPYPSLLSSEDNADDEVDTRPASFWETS

Structure (SMILES)	remaining activity at 0.1 µM (VEGFR2)	% C-Met kinase activity remains (c-Met)	% of compound remained at the 30th minutes, Rat liver microsome (Rat liver microsome)	% of compound remained at the 30th minutes, Mouse liver microsome (Mouse liver microsome)
[2H]C([2H])(c1ccnc(N)c1)N1CCc2c(NC(=O)Nc3cc(Cl)ccc3OC)cccc21 [Example 1, 1-[1-[(2-Amino-4-pyridyl)-dideuteriomethyl]indolin-4-yl]-3-(5-chloro-2-methoxyphenyl)urea]	< 70%	B (the percentage is greater or equal to 70%)	A	A
[2H]C([2H])(c1ccnc2[nH]ccc12)N1CCc2c(NC(=O)Nc3cc(Cl)ccc3F)cccc21 [Example 11, 1-(5-Chloro-2-fluorophenyl)-3-[1-[dideuterio(1H-pyrrolo[2,3-b]pyridin-4-yl)methyl]indolin-4-yl]urea hydrochloride]	< 70%	A (the percentage of kinase activity remains is below 70%)	B	B
[2H]C([2H])([2H])Oc1ccc(Cl)cc1NC(=O)Nc1cccc2c1ccn2C([2H])([2H])c1ccnc(N)c1 [Example 4, 1-[1-[(2-amino-4-pyridyl)-dideuteriomethyl]indol-4-yl]-3-[5-chloro-2-(trideuteriomethoxy)phenyl]urea]	< 70%	A (the percentage of kinase activity remains is below 70%)	A	B
[2H]C(c1c[nH]c2ncccc12)N1CCc2c(NC(=O)Nc3cc(Cl)ccc3OC)cccc21 (stereo not shown) [Example 17, 1-(5-Chloro-2-methoxyphenyl)-3-[1-[deuterio(1H-pyrrolo[2,3-b]pyridin-3-yl)methyl]indolin-4-yl]urea]	< 70%	A (the percentage of kinase activity remains is below 70%)	A	A
[2H]C([2H])(c1ccnc2[nH]ccc12)n1ccc2c(NC(=O)Nc3cc(Cl)ccc3OC)cccc21 [Example 10, 1-(5-chloro-2-methoxyphenyl)-3-[1-[dideuterio(1H-pyrrolo[2,3-b]pyridin-4-yl)methyl]indol-4-yl]urea hydrochloride]	< 70%	A (the percentage of kinase activity remains is below 70%)	B	A
[2H]C([2H])(c1ccnc2[nH]ccc12)n1ccc2c(NC(=O)Nc3cc(Cl)ccc3F)cccc21 [Example 12, 1-(5-chloro-2-fluorophenyl)-3-[1-[dideuterio(1H-pyrrolo[2,3-b]pyridin-4-yl)methyl]indol-4-yl]urea hydrochloride]	< 70%	A (the percentage of kinase activity remains is below 70%)	A	B
[2H]C([2H])(c1ccnc2[nH]ccc12)N1CCc2c(NC(=O)Nc3cccc(C)c3)cccc21 [Example 13, 1-[1-[Dideuterio(1H-pyrrolo[2,3-b]pyridin-4-yl)methyl]indolin-4-yl]-3-(m-tolyl)urea hydrochloride]	< 70%	A (the percentage of kinase activity remains is below 70%)	A	A
